Data set [1] is described as follows: in vitro. The following applies: human, uninfected MT-4 cells.
Data set [2] has as its system pLAI reporter virus. Description: microbe, parasite or virus in culture. Type of data set: cell-based, HIV. The settings on record: Human immunodeficiency virus 1, MT4, 72 h.
Data set [3] relates to HIV-1 (IIIB). The experiment in a line: microbe, parasite or virus in culture. It counts as cell-based. The settings on record: Human immunodeficiency virus 1, IIIB, MT4, 120 h, read-out: MT4 EC50.
[4] abbreviates: HIV-1 (IIIB) in MT-4 cells, 5 days incubation, Cell Titer Glo.

Read-outs that look alike come from different tables or passages of the source.

For `COC1=NO[C@@]2(CC[C@H](C)N3C[C@H]2n2cc(C(=O)NCc4c(F)cc(F)cc4F)c(=O)c(O)c2C3=O)[C@H]1C` [Example 85, (3′S,4R,5S,7′R)-12′-hydroxy-3-methoxy-3′,4-dimethyl-1′,11′-dioxo-N-(2,4,6-trifluorobenzyl)-1′,4′,5′,11′-tetrahydro-3′H,4H,7′H-spiro[isoxazole-5,6′-[2,7]methanopyrido[1,2-a][1,4]diazonine]-10′-carboxamide], the CC50 (usually the concentration giving 50% cytotoxicity) at 5 days in data set [1] is 29600 nM. Also, the EC50 (in general, the concentration that produces a half-maximal response) in data set [2] (read-out: RLUC 50% HS EC50) stood at 28.7 nM; in data set [2] (read-out: RLUC CCM EC50), 0.2 nM; in data set [3] (setting [4]), 1 nM.

On to `C[C@H]1CC[C@]2(COCO2)[C@H]2CN1C(=O)c1c(O)c(=O)c(C(=O)NCc3c(F)cc(F)cc3F)cn12` [Example 130, (3′S,4R,7′R)-12′-hydroxy-3′-methyl-1′,11′-dioxo-N-(2,4,6-trifluorobenzyl)-1′,4′,5′,11′-tetrahydro-3′H,7′H-spiro[[1,3]dioxolane-4,6′-[2,7]methanopyrido[1,2-a][1,4]diazonine]-10′-carboxamide], for which the midpoint of cytotoxicity in data set [1], the CC50 at 5 days, lay at 9840 nM. The EC50 turned out to be 363 nM in data set [2] (read-out: RLUC 50% HS EC50), 0.2 nM in data set [2] (read-out: RLUC CCM EC50) and 0.9 nM in data set [3] (setting [4]).

With `C[C@H]1CC[C@]2(CC(N3CCCC3)=NO2)[C@H]2CN1C(=O)c1c(O)c(=O)c(C(=O)NCc3c(F)cc(F)cc3F)cn12` [Example 75, (3′S,5S,7′R)-12′-hydroxy-3′-methyl-1′,11′-dioxo-3-(pyrrolidin-1-yl)-N-(2,4,6-trifluorobenzyl)-1′,4′,5′,11′-tetrahydro-3′H,4H,7′H-spiro[isoxazole-5,6′-[2,7]methanopyrido[1,2-a][1,4]diazonine]-10′-carboxamide], it took 14100 nM to reach half-maximal cytotoxicity in data set [1] (CC50 at 5 days). In addition, the EC50 was found to be 1.8 nM in data set [2] (read-out: RLUC 50% HS EC50), 0.3 nM in data set [2] (read-out: RLUC CCM EC50) and 1.8 nM in data set [3] (setting [4]).

Take `C[C@H]1CC[C@@]2(Cc3ccccc3O2)[C@H]2CN1C(=O)c1c(O)c(=O)c(C(=O)NCc3c(F)cc(F)cc3F)cn12` [Example 144, (2R,3′S,7′R)-12′-hydroxy-3′-methyl-1′,11′-dioxo-N-(2,4,6-trifluorobenzyl)-1′,4′,5′,11′-tetrahydro-3H,3′H,7′H-spiro[benzofuran-2,6′-[2,7]methanopyrido[1,2-a][1,4]diazonine]-10′-carboxamide]: in data set [1], it took 4810 nM to reach half-maximal cytotoxicity (CC50 at 5 days). The figures for the EC50 in data set [2] (read-out: RLUC 50% HS EC50), in data set [2] (read-out: RLUC CCM EC50) and in data set [3] (setting [4]) were 2.3 nM, 0.1 nM and 1.3 nM, respectively.

Take `CO[C@@H]1CS[C@@]2(CC[C@H](C)N3C[C@H]2n2cc(C(=O)NCc4c(F)cc(F)cc4F)c(=O)c(O)c2C3=O)O1` (single isomer, unassigned) [170 (peak 4)]: in data set [1], the CC50 at 5 days was found to be 33100 nM. For the same compound, the values for the half-maximal effective concentration (EC50) in data set [2] (read-out: RLUC 50% HS EC50), in data set [2] (read-out: RLUC CCM EC50) and in data set [3] (setting [4]) were 14.5 nM, 0.3 nM and 1.7 nM, respectively.

The compound `COC1=NO[C@@]2(CC[C@H](C)N3C[C@H]2n2cc(C(=O)NCc4c(F)cc(F)cc4F)c(=O)c(O)c2C3=O)[C@H]1F` [Example 87, (3′S,4R,5R,7′R)-4-fluoro-12′-hydroxy-3-methoxy-3′-methyl-1′,11′-dioxo-N-(2,4,6-trifluorobenzyl)-1′,4′,5′,11′-tetrahydro-3′H,4H,7′H-spiro[isoxazole-5,6′-[2,7]methanopyrido[1,2-a][1,4]diazonine]-10′-carboxamide] displayed a CC50 at 5 days in data set [1] of 10500 nM. Further, the EC50 in data set [2] (read-out: RLUC 50% HS EC50) came out at 31.8 nM; in data set [2] (read-out: RLUC CCM EC50) it was 0.2 nM; in data set [3] (setting [4]), 1.2 nM.

In data set [1], `CC1=NO[C@@]2(CC[C@H](CF)N3C[C@H]2n2cc(C(=O)NCc4ccc(F)cc4F)c(=O)c(O)c2C3=O)C1` [Example 155, (3′R,5S,7′R)—N-(2,4-difluorobenzyl)-3′-(fluoromethyl)-12′-hydroxy-3-methyl-1′,11′-dioxo-1′,4′,5′,11′-tetrahydro-3′H,4H,7′H-spiro[isoxazole-5,6′-[2,7]methanopyrido[1,2-a][1,4]diazonine]-10′-carboxamide] registered a CC50 at 5 days of 28400 nM. Further, the EC50 in data set [2] (read-out: RLUC 50% HS EC50) was 59.8 nM; in data set [2] (read-out: RLUC CCM EC50), 0.5 nM; in data set [3] (setting [4]), 1 nM.

Consider `C[C@H]1CC[C@]2(CC(CCF)=NO2)[C@H]2CN1C(=O)c1c(O)c(=O)c(C(=O)NCc3c(F)cc(F)cc3F)cn12` [Example 69, (3′S,5S,7′R)-3-(2-fluoroethyl)-12′-hydroxy-3′-methyl-1′,11′-dioxo-N-(2,4,6-trifluorobenzyl)-1′,4′,5′,11′-tetrahydro-3′H,4H,7′H-spiro[isoxazole-5,6′-[2,7]methanopyrido[1,2-a][1,4]diazonine]-10′-carboxamide], for which, in data set [1], the CC50 at 5 days stood at 26300 nM. Besides, the EC50 in data set [2] (read-out: RLUC 50% HS EC50) came to 94.1 nM; in data set [2] (read-out: RLUC CCM EC50), 0.2 nM; in data set [3] (setting [4]) it was 1.3 nM.

In data set [1], `C[C@H]1CC[C@]2(CC(Cl)=NO2)[C@H]2CN1C(=O)c1c(O)c(=O)c(C(=O)NCc3c(F)cc(F)cc3F)cn12` [Example 53, (3′S,5S,7′R)-3-chloro-12′-hydroxy-3′-methyl-1′,11′-dioxo-N-(2,4,6-trifluorobenzyl)-1′,4′,5′,11′-tetrahydro-3′H,4H,7′H-spiro[isoxazole-5,6′-[2,7]methanopyrido[1,2-a][1,4]diazonine]-10′-carboxamide] came in with a CC50 at 5 days of 9470 nM. Also, the EC50 in data set [2] (read-out: RLUC 50% HS EC50) is 166 nM; in data set [2] (read-out: RLUC CCM EC50), 0.3 nM; in data set [3], 1.7 nM.

For `CC1=NO[C@@]2(CC[C@H](C)N3C[C@H]2n2cc(C(=O)NCc4c(F)cc(F)cc4F)c(=O)c(O)c2C3=O)[C@H]1F` [Example 32, (3′S,4S,5R,7′R)-4-fluoro-12′-hydroxy-3,3′-dimethyl-1′,11′-dioxo-N-(2,4,6-trifluorobenzyl)-1′,4′,5′,11′-tetrahydro-3′H,4H,7′H-spiro[isoxazole-5,6′-[2,7]methanopyrido[1,2-a][1,4]diazonine]-10′-carboxamide], the CC50 at 5 days in data set [1] was 21200 nM. Also, the EC50 in data set [2] (read-out: RLUC 50% HS EC50) was found to be 261 nM; in data set [2] (read-out: RLUC CCM EC50), 0.4 nM; in data set [3] (setting [4]), 1.5 nM.

Compound `C[C@H]1CC[C@]2(CC(=O)N(Cc3nc4ccccc4[nH]3)O2)[C@H]2CN1C(=O)c1c(O)c(=O)c(C(=O)NCc3c(F)cc(F)cc3F)cn12` [Example 162, (3′S,5S,7′R)-2-((1H-benzo[d]imidazol-2-yl)methyl)-12′-hydroxy-3′-methyl-1′,3,11′-trioxo-N-(2,4,6-trifluorobenzyl)-1′,4′,5′,11′-tetrahydro-3′H,7′H-spiro[isoxazolidine-5,6′-[2,7]methanopyrido[1,2-a][1,4]diazonine]-10′-carboxamide] yielded a CC50 at 5 days in data set [1] not below 50000 nM. Further, the EC50 turned out to be 5.7 nM in data set [2] (read-out: RLUC 50% HS EC50), 1.4 nM in data set [2] (read-out: RLUC CCM EC50) and 3.6 nM in data set [3] (setting [4]).

As to `C[C@H]1CC[C@]2(COC(Cc3ccccc3)O2)[C@H]2CN1C(=O)c1c(O)c(=O)c(C(=O)NCc3c(F)cc(F)cc3F)cn12` (stereo partly drawn) [Example 135, (2R,3′S,4R,7′R)-2-benzyl-12′-hydroxy-3′-methyl-1′,11′-dioxo-N-(2,4,6-trifuorobenzyl)-1′,4′,5′,11′-tetrahydro-3′H, 7′H-spiro(f[,3]dioxolane-4,6′-[2,7]methanopyrido[1,2-a][1,4]diazonine]-10′-carboxamide], the midpoint of cytotoxicity in data set [1], the CC50 at 5 days, lay at 6880 nM. The results for the EC50 in data set [2] (read-out: RLUC 50% HS EC50), in data set [2] (read-out: RLUC CCM EC50) and in data set [3] (setting [4]) were 581 nM, 2.6 nM and 7.1 nM, respectively.

The values above are taken from patent publication US20250115620A1, “BRIDGED TRICYCLIC CARBAMOYLPYRIDONE COMPOUNDS AND USES THEREOF” (Gilead Sciences, Inc., priority 2022, published 2025).
